Data set [1] in a line: Liver microsomal stability assay (extraction ratio). In kind it is in vitro ADME. The settings on record: test compound 1 μM; 0.5 mg/mL liver microsomes, NADPH, 37° C.; species not stated (method: mouse, rat, and human). Here is the method: 5.4. Liver Microsomal Stability Assay (Extraction Ratio)
Microsomal stability studies (see, Chrovian et al, “H-Pyrrolo[3,2-b]pyridine GluN2B-Selective Negative Allosteric Modulators”. ACS Med Chem Lett. 2019 Jan. 10; 10(3):261-266) were conducted on a Biomek® FX Robotic Liquid Handling Workstation (Beckman Coulter, Brea, Calif.), which consists of a 96-channel pipette head, a 12-position workstation deck, and a plate incubator. Test compounds (1 μM) were spiked in a reaction mix consisting of 100 mM potassium phosphate buffer (pH 7.4), 3 mM MgCl2, and 0.5 mg/mL liver microsomes from mouse, rat, and human (BD Gentest). The reaction was brought to 37° C. and initiated by adding NADPH to a final concentration of 1 mM. After mixing on the platedeck, 50 μL aliquots were excised from the reaction plate at 0, 5, 10, 20, 40, and 60 min and quenched with four volumes of acetonitrile spiked with […] of the internal standard phenytoin. Quenched plates were centrifuged at 5700 rpm for 10 min at 4° C., and supernatant was diluted 1:3 in water before LC/MS/MS analysis. The compound half-lives were derived from plots of the In of percent remaining compound over time to determine the intrinsic clearance. The predicted hepatic clearance was derived from the intrinsic clearance value using equations from the well-stirred model (Current Drug Metabolism, 2008, 9, 940-951), where no correction was made plasma protein binding and the blood to plasma concentration ratio was assumed to be one. The extraction ratio (ER) was calculated by dividing the predicted hepatic clearance by species blood flow (Q), where Q is 90, 55, and 21.7 mL/min/kg for mouse, rat and human, respectively.
A general note: Microsomes from liver hold many membrane-bound enzymes, among them those of drug oxidation.

The target in data set [2] is human GluN1/GluN2B NMDA receptors (Homo sapiens, UniProt Q05586+Q13224). Nature of the data set: Cell-based calcium flux (FLIPR) assay on cloned human GluN1/GluN2B ion channels expressed in mammalian cells. The settings on record: standard assay; glutamate ~EC40, 10 μM glycine; stable Tet-On cell line. An outline of the steps:
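Tet-On-induced stable cells expressing human GluN1/GluN2B, Calcium 5 dye. Compounds preincubated 5 min (agonist check), then glutamate at ~EC40 plus 10 μM glycine added for 5 min; Mg2+ and buffer composition differ between standard and HTS formats. FLIPR Tetra fluorescence normalised to control wells; (+)MK-801 as antagonist control.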
In general terms: Calcium assays in cells follow changes in intracellular calcium, usually with a dye or a luminescent sensor.

SMILES strings stand for the structures. Some results are limits rather than exact numbers.

human GluN1/GluN2B NMDA receptors, sequence (Q13224 27-1484, other chains not shown): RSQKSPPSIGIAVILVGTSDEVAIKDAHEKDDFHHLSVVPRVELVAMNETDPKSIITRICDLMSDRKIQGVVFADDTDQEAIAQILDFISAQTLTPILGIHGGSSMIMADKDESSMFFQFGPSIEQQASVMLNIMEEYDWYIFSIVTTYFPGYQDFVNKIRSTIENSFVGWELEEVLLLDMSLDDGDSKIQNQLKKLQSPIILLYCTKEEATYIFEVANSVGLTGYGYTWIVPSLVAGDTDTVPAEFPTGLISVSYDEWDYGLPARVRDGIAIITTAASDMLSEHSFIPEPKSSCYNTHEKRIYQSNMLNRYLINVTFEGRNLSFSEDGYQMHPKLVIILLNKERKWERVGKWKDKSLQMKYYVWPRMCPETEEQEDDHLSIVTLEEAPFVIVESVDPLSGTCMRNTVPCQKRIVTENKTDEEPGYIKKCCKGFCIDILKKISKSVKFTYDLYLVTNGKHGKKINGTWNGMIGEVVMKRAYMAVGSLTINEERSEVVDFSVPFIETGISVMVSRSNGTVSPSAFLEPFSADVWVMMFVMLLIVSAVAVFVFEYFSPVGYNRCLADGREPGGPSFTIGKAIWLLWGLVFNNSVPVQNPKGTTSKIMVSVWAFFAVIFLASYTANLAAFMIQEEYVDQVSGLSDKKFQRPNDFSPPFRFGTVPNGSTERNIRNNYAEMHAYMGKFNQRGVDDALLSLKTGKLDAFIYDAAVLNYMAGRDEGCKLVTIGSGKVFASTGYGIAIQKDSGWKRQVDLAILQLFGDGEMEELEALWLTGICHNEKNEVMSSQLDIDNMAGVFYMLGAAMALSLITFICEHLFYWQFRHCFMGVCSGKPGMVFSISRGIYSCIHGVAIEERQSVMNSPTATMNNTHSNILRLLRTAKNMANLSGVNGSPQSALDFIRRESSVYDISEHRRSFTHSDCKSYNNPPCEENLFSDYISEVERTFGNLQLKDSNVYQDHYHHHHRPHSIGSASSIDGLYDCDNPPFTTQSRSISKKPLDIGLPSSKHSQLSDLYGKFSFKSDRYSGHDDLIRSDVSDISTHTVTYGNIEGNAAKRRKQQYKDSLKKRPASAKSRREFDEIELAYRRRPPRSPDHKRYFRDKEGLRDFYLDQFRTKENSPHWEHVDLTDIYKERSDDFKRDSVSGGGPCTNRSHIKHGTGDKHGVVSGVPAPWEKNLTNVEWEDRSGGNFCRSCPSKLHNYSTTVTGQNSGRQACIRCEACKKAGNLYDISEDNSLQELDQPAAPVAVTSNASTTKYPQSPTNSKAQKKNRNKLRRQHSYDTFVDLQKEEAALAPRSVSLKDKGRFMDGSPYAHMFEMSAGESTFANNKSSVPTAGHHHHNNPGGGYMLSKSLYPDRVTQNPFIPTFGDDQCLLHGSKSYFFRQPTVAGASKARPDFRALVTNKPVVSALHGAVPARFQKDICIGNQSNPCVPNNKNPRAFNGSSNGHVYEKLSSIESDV

For `CC(c1cncc(-c2ccc(F)c(C(F)F)c2)c1)N1CCOC1=O` (racemic) [Example 60, (R/S)-3-[1-[5-[3-(difluoromethyl)-4-fluoro-phenyl]-3-pyridyl]ethyl]oxazolidin-2-one], in data set [1], the “Extraction Ratio @ 1 μM” value is given as 0.42. Further, the IC50 (in general, the concentration that gives 50% inhibition) in data set [2] turned out to be 785 nM.
The corresponding values for `C[C@H]1CN(Cc2cncc(-c3ccc(F)c(C(F)F)c3)c2)C(=O)O1` (single isomer, unassigned) [Example 27, (S*)-3-[[5-[3-(Difluoromethyl)-4-fluoro-phenyl]-3-pyridyl]methyl]-5-methyl-oxazolidin-2-one] are 0.42 and 14 nM.
The matching figures for `O=C1OCCCN1Cc1cncc(-c2ccc(F)c(OC(F)F)c2)c1` [Example 1, 3-[[5-[3-(Difluoromethoxy)-4-fluoro-phenyl]-3-pyridyl]methyl]-1,3-oxazinan-2-one]: 0.49 and 10 nM.
The corresponding values for `O=C1OCCN1Cc1cncc(-c2ccc(F)c(C(F)F)c2)c1` [Example 22, 3-[[5-[3-(Difluoromethyl)-4-fluoro-phenyl]-3-pyridyl]methyl]oxazolidin-2-one] are 0.63 and 11 nM.
Turning to `O=C1OCCCN1Cc1cncc(-c2ccc(F)c(C(F)F)c2)c1` [Example 38, 3-[[5-[3-(Difluoromethyl)-4-fluoro-phenyl]-3-pyridyl]methyl]-1,3-oxazinan-2-one], in data set [1], the “Extraction Ratio @ 1 μM” value is reported as less than 0.298. The IC50 in data set [2] is 9 nM.
As to `O=C1OCCCN1Cc1cncc(-c2ccc(Cl)c(OC(F)F)c2)c1` [Example 53, 3-[[5-[4-chloro-3-(difluoromethoxy)phenyl]-3-pyridyl]methyl]-1,3-oxazinan-2-one], the “Extraction Ratio @ 1 μM” value in data set [1] was 0.61.
As for `C[C@H]1COC(=O)N1Cc1cc(-c2ccc(F)c(OC(F)F)c2)cnc1C(C)(F)F` [Example 145, (4S)-3-[[2-(1,1-Difluoroethyl)-5-[3-(difluoromethoxy)-4-fluoro-phenyl]-3-pyridyl]methyl]-4-methyl-oxazolidin-2-one], the IC50 in data set [2] was 492 nM.
As for `CC(F)(F)c1ncc(-c2ccc(F)c(OC(F)F)c2)cc1CN1CC2(CC2)OC1=O` [Example 146, 5-[[2-(1,1-Difluoroethyl)-5-[3-(difluoromethoxy)-4-fluoro-phenyl]-3-pyridyl]methyl]-7-oxa-5-azaspiro[2.4]heptan-6-one], the 50% inhibitory concentration (IC50) in data set [2] was 212 nM.
In the case of `CC(F)(F)c1ncc(-c2ccc(F)c(OC(F)F)c2)cc1CN1CC2(CCC2)OC1=O` [Example 147, 6-[[2-(1,1-Difluoroethyl)-5-[3-(difluoromethoxy)-4-fluoro-phenyl]-3-pyridyl]methyl]-8-oxa-6-azaspiro[3.4]octan-7-one], the half-inhibitory concentration (IC50) in data set [2] worked out at 392 nM.
Same read-out and setting: under `C[C@H]1CN(Cc2cc(-c3ccc(F)c(OC(F)F)c3)cnc2C(C)(F)F)C(=O)O1` [Example 148, (5S)-3-[[2-(1,1-Difluoroethyl)-5-[3-(difluoromethoxy)-4-fluoro-phenyl]-3-pyridyl]methyl]-5-methyl-oxazolidin-2-one] stands 147 nM; under `C[C@@H]1CN(Cc2cc(-c3ccc(F)c(OC(F)F)c3)cnc2C(C)(F)F)C(=O)O1` [Example 149, (5R)-3-[[2-(1,1-Difluoroethyl)-5-[3-(difluoromethoxy)-4-fluoro-phenyl]-3-pyridyl]methyl]-5-methyl-oxazolidin-2-one], 127 nM.
`O=C1OCCN1Cc1cc(-c2ccc(F)c(OC(F)F)c2)cnc1F` [Example 150, 3-((5-(3-(Difluoromethoxy)-4-fluorophenyl)-2-fluoropyridin-3-yl)methyl)oxazolidin-2-one]: the half-maximal inhibitory concentration (IC50) in data set [2] came out at 11 nM.
As for `O=C1OCCCN1Cc1cc(-c2ccc(F)c(OC(F)F)c2)cnc1F` [Example 151, 3-((5-(3-(Difluoromethoxy)-4-fluorophenyl)-2-fluoropyridin-3-yl)methyl)-1,3-oxazinan-2-one], the IC50 in data set [2] worked out at 11 nM.

(Values after patent US11447503B2, “Pyridine carbamates and their use as GLUN2B receptor modulators” (JANSSEN PHARMACEUTICA NV, priority 2019, dated 2022).)
